According to publication PMC6189370, “Olmutinib (BI1482694/HM61713), a Novel Epidermal Growth Factor Receptor Tyrosine Kinase Inhibitor, Reverses ABCG2-Mediated Multidrug Resistance in Cancer Cells” (Frontiers in Pharmacology, 2018):

Biological target: T1, ABCG2 (Homo sapiens, UniProt Q9UNQ0)
T1 construct: membrane vesicles of High Five insect cells
T1 sequence (Q9UNQ0 1-655): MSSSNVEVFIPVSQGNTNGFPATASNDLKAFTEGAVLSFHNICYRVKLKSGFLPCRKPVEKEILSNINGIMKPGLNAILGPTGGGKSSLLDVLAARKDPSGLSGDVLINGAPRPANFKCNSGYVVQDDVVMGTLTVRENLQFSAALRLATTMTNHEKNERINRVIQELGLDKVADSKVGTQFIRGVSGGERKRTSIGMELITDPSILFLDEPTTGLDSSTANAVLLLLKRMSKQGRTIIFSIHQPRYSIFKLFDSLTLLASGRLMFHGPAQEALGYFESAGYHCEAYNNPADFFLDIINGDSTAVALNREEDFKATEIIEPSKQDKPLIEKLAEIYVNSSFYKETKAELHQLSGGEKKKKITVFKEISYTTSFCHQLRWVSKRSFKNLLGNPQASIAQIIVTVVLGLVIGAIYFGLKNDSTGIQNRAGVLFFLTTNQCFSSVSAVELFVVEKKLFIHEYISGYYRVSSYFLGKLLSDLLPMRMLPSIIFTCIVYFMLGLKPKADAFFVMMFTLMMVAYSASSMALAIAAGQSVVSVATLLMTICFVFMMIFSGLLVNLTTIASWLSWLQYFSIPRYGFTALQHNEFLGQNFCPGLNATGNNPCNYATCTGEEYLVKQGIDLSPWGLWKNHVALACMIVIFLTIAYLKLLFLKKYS
Assay: biochemical

EC50: 2200 nM
SMILES: C=CC(=O)Nc1cccc(Oc2nc(Nc3ccc(N4CCN(C)CC4)cc3)nc3ccsc23)c1 [olmutinib]
